Source: article PMC4919066 (PLoS Pathogens, 2016)

Legend:
HCMV Towne = experiment: HCMV plaque reduction assay in HFFs; assay type: cell-based, Human Cytomegalovirus; details: GCV 5 μM, 0.5 and 2 million cells/plate
Protocol: (§1) Human Foreskin Fibroblasts (HFFs) passage 12–16 (ATCC, CRL-2088) and mouse embryonic fibroblasts (MEFs) passage 9–14 (ATCC, CRL-1658) were grown in Dulbecco's Modified Eagle Medium (DMEM) containing 10% fetal bovine serum (FBS) (Gibco, Carlsbad, CA) in a 5% CO2 incubator at 37°C. Infection with HCMV or HSV was performed in HFFs, and infection with mouse CMV was performed in MEFs. For HCMV, cells were seeded in either a 96-well plate or 100 mm culture plates (Corning Costar, Sigma Aldrich) at 0.5 or 2 million cells /plate. Following 90 minute adsorption, media was removed and cells were washed with PBS. Media containing 4% FBS and compounds were added to each well. Infected treated HFFs were collected at 72 hpi and lysates were assayed for luciferase activity using a luciferase assay kit (Promega, Madison, WI) on GloMax-Multi+ Detection System (Promega). In second cycle assays, supernatants were collected from all conditions of the first cycle at 96 hpi and used for infection of fresh HFFs in 96-well plates. Luciferase activity was measured 72 h following second cycle infection. For HSV1-KOS/Dlux/oriS, a luciferase assay was performed at 24 hpi. Plaque assays were performed with clinical isolates of HSV2 and HCMV Towne (ATCC VR-977). HFFs were seeded at 3 million cells/plate in 12-well plates and infected 24 h later with HSV2 at 200 PFU/well. For HCMV or MCMV, HFFs or MEFs were seeded at 0.5 or 2 million cells /plate in a 12-well plate and infected 24 hours later at 100 PFU/well. Following virus adsorption (60 min and 90 min for HSV and HCMV, respectively), virus was aspirated, and DMEM containing 4% fetal bovine serum (FBS) with (for HSV) or without (for HCMV/MCMV) 0.5% carboxymethyl-cellulose, were added with the compounds at indicated concentrations into triplicate wells. After incubation at 37°C for 10 days (for HCMV), 3 days for MCMV or 2 days (for HSV), the overlay was removed and plaques were counted after crystal violet staining.

MDM2-IE2 = experiment: Co-immunoprecipitation MDM2-IE2 in transfected HEK293 cells; assay type: cell-based; details: IE1/2 transfection, emetine 75 nM or GCV 5 μM for 4 h
Protocol: HEK-293 cells seeded into 10 cm petri dishes were transfected with HCMV plasmid encoding IE1 and IE2 (pRL45), using Lipofectamine 2000 in serum free medium. After 6 h, 10% FBS containing media was added along with 10 μM of MG132. […] Cells were then harvested to prepare lysates for IP.
Non-infected, infected or emetine-treated HFFs were treated with MG132 (10 μM) for 12h. Cells were harvested after 24 hpi and lysed with IP buffer containing 150 mM NaCl, 50mM Tris pH 7.5, 2 mM EDTA, 0.5% TritonX-100 and 0.5% NP-40-40. 1 mg of lysate was precleared with bead slurry for 30 min. The precleared lysates were incubated with anti-MDM2 (2 μg) antibody overnight. The antibody complexes were isolated using protein A/G beads (Santa Cruz), washed three times with 50% IP buffer. The immunoprecipitate-protein A/G beads were boiled in SDS sample buffer, and the supernatant was analyzed on SDS-PAGE gels after immunoblotting as described previously. 1% of the cell lysate used for IP was loaded on gels as ‘Input’. Confirmatory reverse IPs were performed as described in each experiment. Isotype control antibodies included: rabbit IgG polyclonal, mouse IgG2a kappa and mouse IgG2b kappa monoclonal (Abcam). Mouse monoclonal RPS19 antibody (Abcam) served as an additional negative control for the IPs. Densitometry analysis was performed to determine relative ratio of immunoprecipitated protein to its input level.

HCMV [1] = experiment: Generation of drug resistant virus; assay type: cell-based, Human Cytomegalovirus; details: 5 passages, UL97 sequencing
Protocol: Screening of drug resistant virus was performed as reported. Two million cells were plated on a 6-well plate and infected with HCMV (MOI 0.05). […] The cells were maintained in DMEM with 4% FBS until plaques were observed. The supernatants from these plates were used to infect fresh HFFs in a 6-well plate and each time drug concentration was increased by two fold. […] DNA extracted from supernatants collected at the last stage was used for UL97 sequencing.

MCMV = MCMV plaque reduction assay in MEFs; assay type: cell-based, mouse CMV; details: GCV 5 μM, 0.5 and 2 million cells/plate
Protocol: The pp28-luciferase HCMV Towne and a GCV-resistant pp28-luciferase were used. The recombinant viruses express luciferase under the control of the late CMV gene promoter, pp28. Luciferase expression is activated 48–72 hours post infection (hpi). The recombinant viruses provide a highly-sensitive reporter system which correlates with plaque reduction assay. The Towne HCMV strain (ATCC VR-977) was used for plaque reduction, quantitative reverse transcriptase PCR (qRT-PCR), and immunoprecipitation assays. Human herpes virus strains were: luciferase HSV1- KOS/Dlux/oriS [52] and clinical isolates of HSV2. The clinical isolates were provided by the clinical microbiology laboratory with no identifiers that can link to a specific subject. Murid Herpesvirus (MCMV: ATCC VR-1399) was used for infection of mouse embryonic fibroblasts (MEFs) and mice.
as §1, with “For HSV1-KOS/Dlux/oriS, a luciferase assay was performed at 24 hpi. Plaque assays were performed with clinical isolates of HSV2 and HCMV Towne (ATCC VR-977). HFFs were seeded at 3 million cells/plate in 12-well plates and infected 24 h later with HSV2 at 200 PFU/well. For HCMV or MCMV, HFFs or MEFs were seeded at 0.5 or 2 million cells /plate in a 12-well plate and infected 24 hours later at 100 PFU/well. Following virus adsorption (60 min and 90 min for HSV and HCMV, respectively), virus was aspirated, and DMEM containing 4% fetal bovine serum (FBS) with (for HSV) or without (for HCMV/MCMV) 0.5% carboxymethyl-cellulose, were added with the compounds at indicated concentrations into triplicate wells.” left out

HCMV [2] = experiment: Virus entry, pp65 immunofluorescence assay; assay type: cell-based, Human Cytomegalovirus; details: emetine 75 nM, GCV 10 μM, CpG 2006 10 μM, added 24 h prior to infection

**Q.** With `Nc1nc(O)c2ncn(COC(CO)CO)c2n1` [GCV, Ganciclovir] as the compound, how does the “HCMV inhibition and cell density” value (HCMV Towne) read?
**A.** inhibited HCMV and MCMV irrespective of cell density

**Q.** What about the “interaction between MDM2 and IE2” value (MDM2-IE2) of the same compound?
**A.** had no effect on this interaction

**Q.** What about the “selection of resistant virus with increasing drug concentration” value (HCMV [1]) of the same compound?
**A.** selected for a C607Y mutation in UL97

**Q.** What about the “MCMV inhibition and cell density” value (MCMV) of the same compound?
**A.** inhibited HCMV and MCMV irrespective of cell density

**Q.** What about the “inhibition of viral entry” value (HCMV [2]) of the same compound?
**A.** neither emetine nor GCV inhibited viral entry
